# Data published in patent US9988606B2, “Generation of airway and lung progenitors and epithelial cells and three-dimensional anterior foregut spheres” (THE TRUSTEES OF COLUMBIA UNIVERSITY IN THE CITY OF NEW YORK, priority 2012, dated 2018).
# B1: NOGGIN: biological inhibitor of BMP4 signaling (protein, UniProt Q13253 28-232, looked up)
# Noggin: QHYLHIRPAPSDNLPLVDLIEHPDPIFDPKEKDLNETLLRSLLGGHYDPGFMATSPPEDRPGGGGGAAGGAEDLAELDQLLRQRPSGAMPSEIKGLEFSEGLAQGKKQRLSKKLRRKLQMWLWSQTFCPVLYAWNDLGSRFWPRYVKVGSCFSKRSCSVPEGMVCKPSKSVHLTVLRWRCQRRGGQRCGWIPIQYPIISECKCSC
# B2: FGF7: human FGF7 (KGF), factor of the ventralization cocktail (protein, UniProt P21781 32-194, looked up)
# Fibroblast growth factor 7: CNDMTPEQMATNVNCSSPERHTRSYDYMEGGDIRVRRLFCRTQWYLRIDKRGKVKGTQEMKNNYNIMEIRTVAVGIVAIKGVESEFYLAMNKEGKLYAKKECNEDCNFKELILENHYNTYASAKWTHNGGEMFVALNQKGIPVRGKKTKKEQKTAHFLPMAIT
# B3: BMP4: human BMP4, factor of the ventralization cocktail (protein, UniProt P12644 293-408, looked up)
# Bone morphogenetic protein 4: SPKHHSQRARKKNKNCRRHSLYVDFSDVGWNDWIVAPPGYQAFYCHGDCPFPLADHLNSTNHAIVQTLVNSVNSSIPKACCVPTELSAISMLYLDEYDKVVLKNYQEMVVEGCGCR
# B4: FGF10: human FGF10, factor of the ventralization cocktail (protein, UniProt O15520 38-208, looked up)
# Fibroblast growth factor 10: QALGQDMVSPEATNSSSSSFSSPSSAGRHVRSYNHLQGDVRWRKLFSFTKYFLKIEKNGKVSGTKKENCPYSILEITSVEIGVVAVKAINSNYYLAMNKKGKLYGSKEFNNDCKLKERIEENGYNTYASFNWQHNGRQMYVALNGKGAPRRGQKTRRKNTSAHFLPMVVHS
# Experiments:
# [1] = system: RUES2 cells; test: RA concentration in the ventralization cocktail (NKX2.1 and FOXA2 mRNA and protein); assay type: cell-based, human
# Protocol: FIG. 2.(a) Expression of NKX2.1 and FOXA2 mRNA (lower left) and protein (lower right) after culture of RUES2 cells according to the protocol on top of the panel using various concentrations of RA during the ‘ventralization’ stage. Triplicate experiments representative of 3 independent experiments, *, P<0.05, compared with 0.5 μM RA group. (b) 10× tile scan of 25 (5×5) contiguous fields showing expression of FOXA2, SOX2 and NKX2.1 in RUES2 cells cultured according to the protocol on top of the panel. (c) 20× tile scan of 4 (2×2) contiguous fields showing expression of TUJ1, NKX2.1 and FOXA2.1 in RUES2 cells cultured according to the protocol on top of panel (b). […]
# Total RNA was extracted using Trizol (Invitrogen), phase lock tubes (5′ Prime) and RNeasy kit (Qiagen, Valencia, Calif.). RNA concentration was measured with a NanoDrop 2000 […] (Thermo Fisher Scientific). […] Real-time quantitative PCR was performed on ABI vii7A Thermocycler [Applied Biosystems (Life Technologies)] using ABI Power SYBR Green PCR Master Mix [Applied Biosystems (Life Technologies)]. […] Absolute quantification of each gene was obtained using a standard curve of serial diluted genomic DNA and normalized to housekeeping genes β-ACTIN and TBP (Tata Box Binding protein). […]
# [2] = system: RUES2 cells; test: Removing individual factors or blocking signaling pathways during the ventralization stage (d6-d15); assay type: cell-based, human
# Protocol: FIG. 3. Effect of removing individual factors or blocking signaling pathways during the ‘ventralization’ stage (d6-d15) on the expression of FOXA2 and NKX2.1 in RUES2 cells cultured according to the protocol shown on the upper right of the figure. 10× tile scans of 9 (3×3) contiguous fields. Immunofluorescence images represent reproducible results from 3 independent experiments.
# Day-15, -25 or -48 cultures in 48-well tissue culture plates were fixed with 4% paraformaldehyde for 15 minutes at room temperature and washed twice with PBS. The cells were permeabilized in PBS with 0.25% triton and 5% fetal donkey serum (Jackson ImmunoResearch, West Grove, Pa.) for 30 min and blocked in 5% fetal donkey serum for 2 hours at room temperature. The cell cultures were stained with one, or a combination of two or three of the following primary antibodies: FOXA2/HNF-3β (goat, Santa Cruz Biotechnology, Inc., Santa Cruz, Calif., Cat#sc-6554, clone M-20, 1:50), TTF-1/Nkx2.1 (mouse, Invitrogen, 18-0221, clone 8G7G3/1, 1:100), TTF-1/Nkx2.1 (Rabbit, Seven Hills Bioreagents, Cincinnati, Ohio, Cat#WRAB-1231, 1:1000), p63α (rabbit, Santa Cruz, sc-8344, clone H-129, 1:100), Sox2 (Rabbit, stemgent, 09-0024, 1:100), Pax 6 (rabbit, Covance, Princeton, N.J., Cat#PRB-278P, 1:300), Pax8 (mouse, Abcam, Cambridge, Mass., Cat#ab53490, 1:100), EpCAM (APC conjugated, mouse, BD Biosciences, BDB347200), Tuj1 (mouse, Sigma, T8578, Clone 2G10, 1:4000), Mucin5AC (mouse (Biotin), Abcam, ab79082, clone 45M1, 1:100), Mucin5B (rabbit, Santa Cruz, sc-20119, clone H-300, 1:100), Mucin2 (rabbit, Santa Cruz, sc-15334, clone H-300, 1:100), Foxj1 (mouse, e-bioscience, San Diego, Calif., Cat#14-9965-82, Clone: 2A5, 1:100), cc-10 (goat, Santa Cruz, clone C-20, sc-9770, 1:100), pro-SPC (rabbit, Seven Hills, WRAB-9337, 1:2000), mature-SPC (rabbit, Seven Hills, WRAB-76694, 1:1000), mature SPB (rabbit, Seven Hills, WRAB-48604, 1:1000), ABCA3 (rabbit, Seven Hills, WRAB-70565, 1:100), Mucin1 (Armenian Hamster, NeoMarkers, Fremont, Calif., Cat#HM-1630-P1ABX, clone MH1, 1:100), Podoplanin (rabbit, Santa Cruz, sc-134482 , FL-162, 1:100), AQP5 (goat, Santa Cruz, sc-9890, clone G-19, 1:100). Secondary antibodies were donkey anti-mouse whole IgG-Alexa Fluor 488, 715-545-150, donkey anti-mouse whole IgG-Alexa Fluor 647, 715-605-150, donkey anti-rabbit whole IgG-Alexa Fluor 488, 711-545-152, donkey anti-rabbit whole IgG-Cy3, 711-166-152, donkey anti-goat whole IgG-Alexa Fluor 488, donkey anti-goat whole IgG-Cy3, 705-165-147, donkey anti-goat whole IgG-Alexa Fluor 647, 705-605-147, all from Jackson ImmunoResearch.
# For d6-15 lung progenitor induction (9 days) , the AFE from Example 3 were treated with a ‘ventralization’ cocktail containing CHIR99021, 3 μM (WNT signaling agonist), human FGF10, 10 ng/ml; human FGF7, 10 ng/ml; human BMP4, 10 ng/ml; murine EGF, 20 ng/ml and all-trans retinoic acid (ATRA), 0-1 μM (all from R&D, except CHIR99021 from (Stemgent, Cambridge. Mass.) and ATRA from Sigma) in SFD media for 8-10 days. This treatment produced lung and airway progenitor cells (also herein referred to as “lung field progenitor cells”). At this stage, the lung progenitor cells were early, and they might have committed to a lineage of either lung or airway epithelium, but we wouldn't be able to know because the corresponding airway and distal lung specific markers are not expressed at this stage yet.
# To examine the contribution of each of the factors to the specification of lung and airway progenitors, each of the factors was withdrawn from the ‘ventralization’ cocktail (i.e., CHIR99021, FGF10, FGF7, BMP4 and EGF), or blocked by specific inhibitors (i.e., NOGGIN as biological inhibitor of BMP4 signaling and IWP2 as pharmacological inhibitor of WNT signaling), or added at different concentrations (i.e., RA 0, 0.05, 0.1, 0.5, 1 μM, and BMS493 (10 μM, Tocris) as RA inhibitor). […]
# [3] = factor removed from the CFKB cocktail, d6-d15
molecule,measurement,setting,value
"CC1=C(/C=C/C(C)=C/C=C/C(C)=C/C(=O)O)C(C)(C)CCC1 [RA, all-trans retinoic acid]",NKX2.1 mRNA and NKX2.1+ fraction,"[1]; higher RA concentrations, FOXA2+ endoderm maintained",dropped
same,induction of NKX2.1 and FOXA2 mRNA and protein,[1]; low RA concentrations (0.05-0.1 μM),optimal induction
Cc1c[nH]c(-c2cnc(NCCNc3ccc(C#N)cn3)nc2-c2ccc(Cl)cc2Cl)n1 [CHIR],effect of removing the factor on generation of FOXA2+ and FOXA2+NKX2.1+ cells,[2]; [3],severely reduced
Cc1ccc2nc(NC(=O)CSc3nc4c(c(=O)n3-c3ccccc3)SCC4)sc2c1 [IWP2],generation of NKX2.1+ cells,[2]; CHIR removed plus additional blockade of endogenous WNT signaling by the substance,completely abrogated
B1,generation of FOXA2+NKX2.1+ cells,[2]; BMP signaling blocked by addition of the substance during ventralization stage,less than 5%
B2,effect of removing the factor on generation of FOXA2+ and FOXA2+NKX2.1+ cells,[2]; [3],no effect
B3,generation of NKX2.1+ cells after removing the factor,[2]; [3],approximately 40%
B4,effect of removing the factor on generation of FOXA2+ and FOXA2+NKX2.1+ cells,[2]; [3],no effect
